Data taken from patent US9115143B2, “Substituted indole derivatives as gamma secretase modulators” (Janssen Pharmaceuticals, Inc., priority 2011, dated 2015).

Columns and labels:
Aβ42 = assay: In vivo efficacy B-1a: brain soluble Aβ42 in non-transgenic rodents, ELISA; parameters: species or system mouse; conditions: dose 30 mg/kg oral dosing, brain soluble fraction, untreated animals (Ctrl) set at 100; for response vs control in vivo at 30 mg/kg: Mus musculus, po, read-out: Aβ42 (% vs Ctrl)_Mean; for Aβ42 (% vs Ctrl)_Mean: 30 mg/kg
From the text: (§1) To determine whether acute administration of an Aβ42 lowering agent would reduce Aβ42 levels in vivo, non-transgenic rodents, e.g. mice or rats were used. Animals treated with the Aβ42 lowering agent were examined and compared to those untreated or treated with vehicle and brain levels of soluble Aβ42 and total Aβ were quantitated by standard techniques, for example, using ELISA. Treatment periods varied from hours (h) to days and were adjusted based on the results of the Aβ42 lowering once a time course of onset of effect could be established.
(§2) A typical protocol for measuring Aβ42 lowering in vivo is shown but it is only one of many variations that could be used to optimize the levels of detectable Aβ. For example, Aβ42 lowering compounds were formulated in 20% of Captisol® (a sulfobutyl ether of β-cyclodextrin) in water or 20% hydroxypropyl β cyclodextrin. The Aβ42 lowering agents were administered as a single oral dose or by any acceptable route of administration to overnight fasted animals. After 4 h, the animals were sacrificed and Aβ42 levels were analysed.
(§3) Blood was collected by decapitation and exsanguinations in EDTA-treated collection tubes. Blood was centrifuged at 1900 g for 10 minutes (min) at 4° C. and the plasma recovered and flash frozen for later analysis. The brain was removed from the cranium and hindbrain. The cerebellum was removed and the left and right hemisphere were separated. The left hemisphere was stored at −18° C. for quantitative analysis of test compound levels. The right hemisphere was rinsed with phosphate-buffered saline (PBS) buffer and immediately frozen on dry ice and stored at −80° C. until homogenization for biochemical assays.
(§4) Mouse brains from non-transgenic animals were resuspended in 8 volumes of 0.4% DEA (diethylamine)/50 mM NaCl containing protease inhibitors (Roche-11873580001 or 04693159001) per gram of tissue, e.g. for 0.158 g brain, add 1.264 mL of 0.4% DEA. All samples were homogenized in the FastPrep-24 system (MP Biomedicals) using lysing matrix D (MPBio #6913-100) at 6 m/s for 20 seconds. Homogenates were centrifuged at 20800×g for 5 min and supernatants collected. Supernatants were centrifuged at 221.300×g for 50 min. The resulting high speed supernatants were then transferred to fresh eppendorf tubes. Nine parts of supernatant were neutralized with 1 part 0.5 M Tris-HCl pH 6.8 and used to quantify Aβtotal and Aβ42.
To quantify the amount of Aβtotal and Aβ42 in the soluble fraction of the brain homogenates, Enzyme-Linked-Immunosorbent-Assays were used. Briefly, the standards (a dilution of synthetic Aβ1-40 and Aβ1-42, Bachem) were prepared in 1.5 mL Eppendorf tube in Ultraculture, with final concentrations ranging from 10000 to 0.3 pg/mL. The samples and standards were co-incubated with HRPO-labelled N-terminal antibody JRF/rAμ/2 for Aβ42 detection and with the biotinylated mid-domain antibody 4G8 for Aβtotal detection. 50 μl of conjugate/sample or conjugate/standards mixtures were then added to the antibody-coated plate (the capture antibodies selectively recognize the C-terminal end of Aβ42, antibody JRF/cAβ42/26, for Aβ42 detection and the N-terminus of AB, antibody JRF/rAβ/2, for Aβtotal detection). The plate was allowed to incubate overnight at 4° C. in order to allow formation of the antibody-amyloid complex. Following this incubation and subsequent wash steps the ELISA for Aβ42 quantification was finished by addition of Quanta Blu fluorogenic peroxidase substrate according to the manufacturer's instructions (Pierce Corp., Rockford, Ill.). A reading was performed after 10 to 15 min (excitation 320 nm/emission 420 nm).
In this model a Aβ42 lowering compared to untreated animals would be advantageous, in particular a Aβ42 lowering with at least 10%, more in particular a Aβ42 lowering with at least 20%.
The results are shown in Table 4 (dose 30 mg/kg oral dosing) (value for untreated animals as control (Ctrl) was set at 100): […]

Aβ38 = assay: In vivo efficacy B-2a: brain soluble Aβ38 in non-transgenic rodents, ELISA; parameters: species or system mouse; conditions: dose 30 mg/kg oral dosing, brain soluble fraction, untreated animals (Ctrl) set at 100; for response vs control in vivo at 30 mg/kg: Mus musculus, po, read-out: Aβ38 (% vs Ctrl)_Mean; for Aβ38 (% vs Ctrl)_Mean: 30 mg/kg
From the text: Aβ38 increasing agents can be administered in any standard form using any standard method. For example, but not limited to, Aβ38 increasing agents can be in the form of liquid, tablets or capsules that are taken orally or by injection.
as §1, with “Aβ38 increasing agents” for “Aβ42 lowering agent”, “increase Aβ38” for “reduce Aβ42”, “Aβ38” for “Aβ42”, “Aβ38 increase” for “Aβ42 lowering”
as §2, with “measuring Aβ38 increase” for “measuring Aβ42 lowering”, “example, Aβ38 increasing agents” for “example, Aβ42 lowering compounds”, “The Aβ38 increasing” for “The Aβ42 lowering”, “and Aβ38” for “and Aβ42”
as §3
as §4, with “Aβ38.” for “Aβ42.”
To quantify the amount of Aβtotal and Aβ38 in the soluble fraction of the brain homogenates, Enzyme-Linked-Immunosorbent-Assays were used. Briefly, the standards (a dilution of synthetic Aβ1-40 and Aβ1-38, ANASPEC) were prepared in 1.5 mL Eppendorf tube in Ultraculture, with final concentrations ranging from 10000 to 0.3 pg/mL. The samples and standards were co-incubated with HRPO-labelled N-terminal antibody for Aβ38 detection and with the biotinylated mid-domain antibody 4G8 for Aβtotal detection. 50 μl of conjugate/sample or conjugate/standards mixtures were then added to the antibody-coated plate (the capture antibodies selectively recognize the C-terminal end of Aβ38, antibody J&JPRD/Aβ38/5, for Aβ38 detection and the N-terminus of Aβ, antibody JRF/rAβ/2, for Aβtotal detection). The plate was allowed to incubate overnight at 4° C. in order to allow formation of the antibody-amyloid complex. Following this incubation and subsequent wash steps the ELISA for Aβ38 quantification was finished by addition of Quanta Blu fluorogenic peroxidase substrate according to the manufacturer's instructions (Pierce Corp., Rockford, Ill.). A reading was performed after 10 to 15 min (excitation 320 nm/emission 420 nm). […]

Structure (SMILES) | response vs control in vivo at 30 mg/kg (Aβ42) [%] | response vs control in vivo at 30 mg/kg (Aβ38) [%] | Aβ42 (% vs Ctrl)_Mean (Aβ42) [% vs Ctrl] | Aβ38 (% vs Ctrl)_Mean (Aβ38) [% vs Ctrl]
COc1c(C#N)ccc2[nH]c(-c3cn4c(n3)C(c3ccc(F)cc3C)CCC4)cc12 (stereo not shown) [Compound 74, 2-[8-(4-fluoro-2-methylphenyl)-5,6,7,8-tetrahydroimidazo[1,2-a]pyridin-2-yl]-4-methoxy-1H-indole-5-carbonitrile] | 49 | 117 |  | 
Cc1cn(-c2ccc3[nH]c(-c4nc5n(n4)CCCC5c4ccccc4C(F)(F)F)cc3c2)cn1 (stereo not shown) [Compound 8, 5,6,7,8-tetrahydro-2-[5-(4-methyl-1H-imidazol-1-yl)-1H-indol-2-yl]-8-[2-(trifluoromethyl)phenyl]-[1,2,4]triazolo[1,5-a]pyridine] | 41 | 181 |  | 
Cc1cn(-c2ccc3[nH]c(-c4nc5n(n4)CCCC5c4ccccc4C)cc3n2)cn1.Cl (stereo not shown) [Compound 5, 5,6,7,8-tetrahydro-2-[5-(4-methyl-1H-imidazol-1-yl)-1H-pyrrolo[3,2-b]pyridin-2-yl]-8-(2-methylphenyl)-[1,2,4]triazolo[1,5-a]pyridine] | 106 | 123 |  | 
COc1c(C#N)ccc2[nH]c(-c3cn4c(n3)C(c3ccc(F)cc3C)OCC4)cc12 (stereo not shown) [Compound 47, 2-[8-(4-fluoro-2-methylphenyl)-5,6-dihydro-8H-imidazo[2,1-c][1,4]oxazin-2-yl]-4-methoxy-1H-indole-5-carbonitrile] |  |  | 45 | 87
N#Cc1ccc2[nH]c(-c3cn4c(n3)C(c3ccccc3Cl)CCC4)cc2c1 (stereo not shown) [Compound 16, 2-[8-(2-chlorophenyl)-5,6,7,8-tetrahydroimidazo[1,2-a]pyridin-2-yl]-1H-indole-5-carbonitrile] | 74 | 120 |  | 
N#Cc1ccc2[nH]c(-c3nc4n(n3)CCCC4c3ccccc3C(F)(F)F)cc2c1 (stereo not shown) [Compound 18, 2-[5,6,7,8-tetrahydro-8-[2-(trifluoromethyl)phenyl][1,2,4]triazolo[1,5-a]pyridin-2-yl]-1H-indole-5-carbonitrile] | 88 | 87 |  | 
Cc1cc(F)ccc1C1CCCn2cc(-c3cc4cc(C#N)ccc4[nH]3)nc21 (stereo not shown) [Compound 64, 2-[8-(4-fluoro-2-methylphenyl)-5,6,7,8-tetrahydroimidazo[1,2-a]pyridin-2-yl]-1H-indole-5-carbonitrile] |  |  | 48 | 122
Cc1cn(-c2ccc3[nH]c(-c4nc5n(n4)CCOC5c4ccccc4C(F)(F)F)cc3c2)cn1 (stereo not shown) [Compound 37, 5,6-dihydro-2-[5-(4-methyl-1H-imidazol-1-yl)-1H-indol-2-yl]-8-[2-(trifluoromethyl)phenyl]-8H-[1,2,4]triazolo[5,1-c][1,4]oxazine] | 64 | 118 |  | 
Cc1cc(F)ccc1C1CCCn2cc(-c3cc4cc(C#N)ccc4[nH]3)nc21 (stereo not shown) [Compound 4, 2-[8-(4-fluoro-2-methylphenyl)-5,6,7,8-tetrahydroimidazo[1,2-a]pyridin-2-yl]-1H-indole-5-carbonitrile] |  |  | 63 | 141
Cc1cc(F)ccc1C1CCCn2cc(-c3cc4cc(C#N)ccc4[nH]3)nc21 (stereo not shown) [Compound 63, 2-[8-(4-fluoro-2-methylphenyl)-5,6,7,8-tetrahydroimidazo[1,2-a]pyridin-2-yl]-1H-indole-5-carbonitrile] |  |  | 121 | 98
Cc1ccccc1C1CCCn2nc(-c3cc4cc(C#N)ccc4[nH]3)nc21 (stereo not shown) [Compound 12, 2-[5,6,7,8-tetrahydro-8-(2-methylphenyl)[1,2,4]triazolo[1,5-a]pyridin-2-yl]-1H-indole-5-carbonitrile] |  |  | 94 | 96
Cc1cn(-c2cc3cc(-c4nc5n(n4)CCCC5c4ccc(F)cc4C)[nH]c3cn2)cn1 (stereo not shown) [Compound 71, 8-(4-fluoro-2-methylphenyl)-5,6,7,8-tetrahydro-2-[5-(4-methyl-1H-imidazol-1-yl)-1H-pyrrolo[2,3-c]pyridin-2-yl]-[1,2,4]triazolo[1,5-a]pyridine] | 108 | 115 |  | 
COc1c(C#N)ccc2[nH]c(-c3nc4n(n3)CCOC4c3ccccc3C(F)(F)F)cc12 (stereo not shown) [Compound 55, 2-[5,6-dihydro-8-[2-(trifluoromethyl)phenyl]-8H-[1,2,4]triazolo[5,1-c][1,4]oxazin-2-yl]-4-methoxy-1H-indole-5-carbonitrile] | 55 | 130 |  | 
Cc1cn(-c2ccc3[nH]c(-c4nc5n(n4)CCCC5c4ccc(F)cc4C)cc3n2)cn1 (stereo not shown) [Compound 65, 8-(4-fluoro-2-methylphenyl)-5,6,7,8-tetrahydro-2-[5-(4-methyl-1H-imidazol-1-yl)-1H-pyrrolo[3,2-b]pyridin-2-yl]-[1,2,4]triazolo[1,5-a]pyridine] | 82 | 101 |  | 
